This note sets out measurements from publication PMC8963105, “A Novel Modulator of the Renin–Angiotensin System, Benzoylaconitine, Attenuates Hypertension by Targeting ACE/ACE2 in Enhancing Vasodilation and Alleviating Vascular Inflammation” (Frontiers in Pharmacology, 2022).

Test [1] has as its target T1, recombinant human ACE (rhACE) (Homo sapiens, UniProt P12821).
T1 construct: purchased Proteintech
As to the kind of experiment: SPR assay with rhACE. Type of test: binding. As to conditions: rhACE on chip, 5% DMSO–1.05× PBS. As to the method: (§1) To screen the potential targets of the MDAs in hypertension, a CVDPlatform (www.cbligand.org/CVD) was used as previously reported ([Zhang et al., 2016a]). The results of database screening were verified by virtual docking with Discovery Studio 3.5 (BIOVIA, San Diego, CA, United States) and then validated in the SPR assay. In the SPR assay, a solution of protein standards was prepared, and the concentration of recombinant human ACE (rhACE) protein and rhACE2 (Proteintech, Rosemont, IL, United States) solution was set to 500 μg ml^−1. […] Finally, the level of binding between the proteins and each molecule was determined based on the K d value.

Test [2] relates to spontaneously hypertension rats (SHRs). The experiment in a line: acute experiment: real-time blood pressure after i.v. injection in SHRs. Type of test: in vivo, rat. As to conditions: for anti-hypertensive effect (in words): acute experiment, i.v. injection 0.6–6 mg kg^−1. As to the method:
(§2) The SHRs were surgically implanted with a catheter via the left femoral artery, vein, and stomach after anesthetizing with 2% pentobarbital sodium (40 mg kg^−1 i.p.,). A pressure sensor was inserted into the terminal of the arterial catheter and connected to a PowerLab system (ADInstruments, New South Wales, Australia) for real-time blood pressure monitoring.
(§3) All three MDAs (BAC, BMC, and BHC) were purchased from Nature-Standard Co., Ltd. (Shanghai, China) and their purities were all over 98%. The anti-hypertensive effects of MDAs were studied in both acute and chronic experiments. The 16-week-old SHRs were used in animal experiments, and each group had six rats. In the acute experiment, drug administration was via i.v. injection. For i.v. injection, the animals were randomly assigned into four groups: vehicle (0.1% DMSO–0.9% salt solution, n = 6), low-dose group (0.6 mg kg^−1 body weight, n = 6), medium-dose group (2 mg kg^−1 body weight, n = 6), and high-dose group (6 mg kg^−1 body weight, n = 6). The drug was administered using a venous catheter. In chronic experiments, the animals were randomly assigned into five groups: vehicle (5% Tween 80–0.9% salt solution, n = 6), captopril group (5 mg kg^−1 body weight, n = 6), low-dose group (3 mg kg^−1 body weight, n = 6), medium-dose group (10 mg kg^−1 body weight, n = 6), and high-dose group (30 mg kg^−1 body weight, n = 6). Oral administration with drug or 5% Tween 80–0.9% salt solution was carried out once a day, and continued for 14 days. The drugs were dissolved in 0.1% DMSO–0.9% salt solution for intravenous injection and in 5% Tween 80–0.9% salt solution for oral administration. Blood pressure was recorded in real time.
(§4) Real-time blood pressure level was monitored after drug treatment in the acute and chronic experiments. All animals were surgically implanted with a catheter in the left femoral artery. After connection to the monitor, all animals were placed at room temperature of 25°C for 0.5–1 h and the average blood pressure value was calculated based on a real-time blood pressure curve (10 s of every 30 s).

The next test deals with hrACE2 (Homo sapiens, UniProt Q9BYF1). The experiment in a line: SensoLyte390 ACE2 activity assay (enzyme kinetics, cell-free). The following applies: EC50 of BMC and BHC could not be determined. Type of test: biochemical. As to the method: (§5) ACE and ACE2 activities were measured using the ACE activity assay kit and SensoLyte390 ACE2 activity assay kit (Anaspec, Fremont, CA, United States), respectively, according to the manufacturer’s instructions with some modifications. Briefly, rhACE solution dissolved in deionized water was used for analysis. ACE activity was measured in a reaction system with 50 μl of the sample and 50 μl of the ACE substrate solution with or without BAC (10^–4 to 10^–2 μM). ACE2 activity was assayed in the same manner as ACE activity. All assays were performed every 10 s for 30 min at 37°C using a Varioskan LUX fluorescence microplate reader (Thermo Fisher Scientific, Waltham, MA, United States). The autofluorescence value in each assay was subtracted from the measured values to generate the final results. The relative fluorescence unit of each sample was normalized to the corresponding total protein concentration, which was measured using a Pierce BCA protein assay kit (Thermo Fisher Scientific).
hrACE2, sequence (Q9BYF1 18-805): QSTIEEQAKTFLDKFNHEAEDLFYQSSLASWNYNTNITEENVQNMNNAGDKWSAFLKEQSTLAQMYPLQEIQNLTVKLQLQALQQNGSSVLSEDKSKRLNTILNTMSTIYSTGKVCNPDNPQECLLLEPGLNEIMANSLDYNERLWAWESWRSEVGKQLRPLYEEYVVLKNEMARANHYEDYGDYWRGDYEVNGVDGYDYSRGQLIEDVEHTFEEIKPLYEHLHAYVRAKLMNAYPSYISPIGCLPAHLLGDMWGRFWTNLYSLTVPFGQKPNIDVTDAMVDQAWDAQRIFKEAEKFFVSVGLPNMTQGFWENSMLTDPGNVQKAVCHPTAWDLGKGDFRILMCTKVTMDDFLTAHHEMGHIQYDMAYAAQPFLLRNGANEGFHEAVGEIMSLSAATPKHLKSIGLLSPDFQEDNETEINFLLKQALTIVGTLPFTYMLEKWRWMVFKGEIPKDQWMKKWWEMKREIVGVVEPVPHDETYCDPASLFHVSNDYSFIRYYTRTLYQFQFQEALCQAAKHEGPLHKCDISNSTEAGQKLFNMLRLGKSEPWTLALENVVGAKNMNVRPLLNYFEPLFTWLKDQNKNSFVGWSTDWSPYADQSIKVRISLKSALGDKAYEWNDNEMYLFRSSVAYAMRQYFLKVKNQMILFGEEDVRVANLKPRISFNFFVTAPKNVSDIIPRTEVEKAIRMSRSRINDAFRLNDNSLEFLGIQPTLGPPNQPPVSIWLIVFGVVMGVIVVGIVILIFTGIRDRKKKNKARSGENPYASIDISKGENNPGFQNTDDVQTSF

Another test has as its target rhACE (Homo sapiens, UniProt P12821). The experiment in a line: ACE activity assay kit (enzyme kinetics, cell-free). Type of test: biochemical. As for the experimental part: as §5
The target of another test is T2, rhACE2 (Homo sapiens, UniProt Q9BYF1).
T2 construct: purchased Proteintech
T2 sequence (Q9BYF1 18-805): as above
As to the kind of experiment: SPR assay with rhACE2. In kind it is binding. As to conditions: rhACE2 on chip, 5% DMSO–1.05× PBS. As for the experimental part:
as §1

Test [3] deals with spontaneously hypertension rats (SHRs). As to the kind of experiment: chronic experiment: blood pressure, heart rate and aorta histology after 14-day oral administration in SHRs. As to conditions: once a day, 14 days. In kind it is in vivo, rat. As to the method: as §2, §3, §4
After euthanizing the rats with sodium pentobarbital (100 mg kg^−1, i.p.) administration in combination with isoflurane inhalation, the aortas were harvested directly according to a previously described method. The aortas were fixed in 4% paraformaldehyde for 24 h and embedded in paraffin. The cross-sections (5 μm) were stained with hematoxylin and eosin or subjected to immunostaining. Immunofluorescence staining for ACE and ACE2 was performed according to the manufacturer’s instructions (Servicebio, Wuhan, China).

Structures are written as SMILES.

T1 sequence (P12821 30-1306): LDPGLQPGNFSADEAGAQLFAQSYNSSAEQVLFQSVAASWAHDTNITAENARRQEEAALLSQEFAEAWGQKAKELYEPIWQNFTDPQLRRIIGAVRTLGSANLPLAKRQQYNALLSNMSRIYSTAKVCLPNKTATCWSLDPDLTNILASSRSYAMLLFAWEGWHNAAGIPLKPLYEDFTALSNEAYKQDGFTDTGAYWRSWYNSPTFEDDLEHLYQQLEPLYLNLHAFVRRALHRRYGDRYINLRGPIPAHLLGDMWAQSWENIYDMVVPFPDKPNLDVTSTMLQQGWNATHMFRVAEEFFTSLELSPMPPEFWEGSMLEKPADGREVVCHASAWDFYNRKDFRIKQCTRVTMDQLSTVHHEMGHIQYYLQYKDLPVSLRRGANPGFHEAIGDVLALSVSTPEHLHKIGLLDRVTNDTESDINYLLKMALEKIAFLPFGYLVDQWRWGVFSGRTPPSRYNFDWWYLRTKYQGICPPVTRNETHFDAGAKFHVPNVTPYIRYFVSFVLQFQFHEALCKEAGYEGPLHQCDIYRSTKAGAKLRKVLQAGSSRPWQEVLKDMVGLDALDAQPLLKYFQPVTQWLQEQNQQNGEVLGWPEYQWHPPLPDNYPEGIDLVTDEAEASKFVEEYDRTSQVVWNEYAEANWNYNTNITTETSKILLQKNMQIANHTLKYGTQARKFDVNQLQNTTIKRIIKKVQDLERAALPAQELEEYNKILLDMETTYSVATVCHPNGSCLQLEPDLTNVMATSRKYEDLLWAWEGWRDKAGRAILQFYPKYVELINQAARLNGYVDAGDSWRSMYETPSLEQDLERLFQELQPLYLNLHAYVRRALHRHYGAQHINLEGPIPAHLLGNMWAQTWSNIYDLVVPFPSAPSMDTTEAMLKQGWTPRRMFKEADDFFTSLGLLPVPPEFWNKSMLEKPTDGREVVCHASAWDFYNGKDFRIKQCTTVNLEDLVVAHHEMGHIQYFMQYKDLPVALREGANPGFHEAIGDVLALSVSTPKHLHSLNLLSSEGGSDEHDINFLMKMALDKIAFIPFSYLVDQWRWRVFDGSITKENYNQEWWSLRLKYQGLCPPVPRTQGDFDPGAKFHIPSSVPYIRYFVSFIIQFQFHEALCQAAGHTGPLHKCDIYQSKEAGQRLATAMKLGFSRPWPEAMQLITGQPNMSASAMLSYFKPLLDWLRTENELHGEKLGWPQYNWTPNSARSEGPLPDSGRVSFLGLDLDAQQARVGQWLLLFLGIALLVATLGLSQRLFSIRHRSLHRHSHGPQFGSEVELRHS
rhACE, sequence (P12821 30-1306): as above

In the case of `COCC12CCC(OC)C34C5CC6(O)C(OC)C(O)C(O)(C5C6OC(=O)c5ccccc5)C(C(OC)C13)C4N(C)C2` (stereo not drawn) [BHC, Benzoylhypaconitine], the Kd in test [1] stood at 139 µM; on rhACE2 it was 308 µM. Also, in test [2], the “anti-hypertensive effect (in words)” value is “no anti-hypertensive effects”. The “effect on ACE2 activity (in words)” value on hrACE2 is “weaker pharmacodynamics effects”. Moreover, on rhACE (IC50 could not be determined), the “effect on ACE activity (in words)” value was “little effect”.

In the case of `COCC12CN(C)C3C4C(OC)C1C3(C(OC)CC2O)C1CC2(O)C(OC)C(O)C4(O)C1C2OC(=O)c1ccccc1` (stereo not drawn) [BMC, Benzoylmesaconine], the figures for the Kd (in test [1]; on rhACE2) were 53.6 µM and 20.5 µM, respectively. Moreover, the “anti-hypertensive effect (in words)” value in test [2] is reported as “observable anti-hypertensive effects”. In addition, in test [2] (i.v. injection, 6 mg kg^−1), the blood pressure reduction result is recorded as “approximately 20 mmHg”. Also, the “effect on ACE2 activity (in words)” value at hrACE2 is listed as “weaker pharmacodynamics effects”. On rhACE (37°C, 30 min), this molecule returned a half-maximal inhibitory concentration (IC50) of 0.96 µM.

As to `C[C@H](CS)C(=O)N1CCC[C@H]1C(=O)O` [captopril, reference compound], the heart rate entry in test [3] is “Heart rate changed”.
